Experimental data: paper doi:10.1101/614586v1 (biorxiv, 2019)

Assays:
human RAD54 [1] = target: T1, human RAD54 (Homo sapiens, UniProt Q92698); assay: biochemical; settings: read-out: % inh.
T1 sequence (Q92698 1-747): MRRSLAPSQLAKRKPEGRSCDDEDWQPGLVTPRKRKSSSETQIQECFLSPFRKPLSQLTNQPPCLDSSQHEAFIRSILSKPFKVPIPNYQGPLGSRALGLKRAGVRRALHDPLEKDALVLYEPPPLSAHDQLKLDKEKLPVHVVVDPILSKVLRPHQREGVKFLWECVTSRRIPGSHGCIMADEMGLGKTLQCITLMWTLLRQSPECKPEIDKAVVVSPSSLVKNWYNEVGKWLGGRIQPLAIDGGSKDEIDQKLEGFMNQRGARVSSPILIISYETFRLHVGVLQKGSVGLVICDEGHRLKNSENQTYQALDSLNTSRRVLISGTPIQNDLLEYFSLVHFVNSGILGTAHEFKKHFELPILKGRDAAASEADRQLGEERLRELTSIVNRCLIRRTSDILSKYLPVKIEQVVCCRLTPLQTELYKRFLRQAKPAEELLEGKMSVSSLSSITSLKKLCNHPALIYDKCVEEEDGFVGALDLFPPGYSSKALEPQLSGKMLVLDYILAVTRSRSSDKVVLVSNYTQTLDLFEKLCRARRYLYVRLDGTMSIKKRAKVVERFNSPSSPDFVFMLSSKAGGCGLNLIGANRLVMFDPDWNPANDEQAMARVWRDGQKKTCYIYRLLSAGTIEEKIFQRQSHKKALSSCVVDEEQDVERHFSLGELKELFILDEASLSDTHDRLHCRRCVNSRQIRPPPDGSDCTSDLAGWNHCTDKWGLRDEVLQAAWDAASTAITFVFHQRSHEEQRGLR

human RAD54 [2] = target: T1, human RAD54; assay: malachite green phosphate ATPase assay; format: biochemical
H. sapiens VCP/p97 = H. sapiens VCP/p97 (Homo sapiens, UniProt P55072); assay: malachite green phosphate ATPase assay; format: biochemical
H. sapiens VCP/p97, sequence (P55072 2-806): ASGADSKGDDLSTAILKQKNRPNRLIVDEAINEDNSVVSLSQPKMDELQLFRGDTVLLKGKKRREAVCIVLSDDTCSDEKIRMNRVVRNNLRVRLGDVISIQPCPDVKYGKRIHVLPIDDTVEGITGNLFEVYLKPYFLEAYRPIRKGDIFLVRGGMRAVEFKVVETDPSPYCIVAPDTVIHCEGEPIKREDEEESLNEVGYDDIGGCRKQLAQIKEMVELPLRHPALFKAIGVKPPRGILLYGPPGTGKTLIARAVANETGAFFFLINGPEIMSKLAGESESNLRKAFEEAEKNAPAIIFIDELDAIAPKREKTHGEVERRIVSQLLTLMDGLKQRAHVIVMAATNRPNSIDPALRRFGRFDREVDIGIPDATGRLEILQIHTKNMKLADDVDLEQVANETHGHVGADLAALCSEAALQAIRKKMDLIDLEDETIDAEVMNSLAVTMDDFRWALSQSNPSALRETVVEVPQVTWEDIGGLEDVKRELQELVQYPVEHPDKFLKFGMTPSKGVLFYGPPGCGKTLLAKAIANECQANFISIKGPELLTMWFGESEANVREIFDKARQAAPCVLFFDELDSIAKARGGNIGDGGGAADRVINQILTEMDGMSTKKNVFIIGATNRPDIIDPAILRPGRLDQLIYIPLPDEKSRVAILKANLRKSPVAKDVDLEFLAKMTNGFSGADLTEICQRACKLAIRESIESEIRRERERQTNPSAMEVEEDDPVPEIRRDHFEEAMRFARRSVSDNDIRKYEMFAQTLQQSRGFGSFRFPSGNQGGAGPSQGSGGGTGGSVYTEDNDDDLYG

S. cerevisiae Rad54 = target: T2, S. cerevisiae Rad54 (Saccharomyces cerevisiae, UniProt P32863); assay: malachite green phosphate ATPase assay; format: biochemical
T2 sequence (P32863 1-898): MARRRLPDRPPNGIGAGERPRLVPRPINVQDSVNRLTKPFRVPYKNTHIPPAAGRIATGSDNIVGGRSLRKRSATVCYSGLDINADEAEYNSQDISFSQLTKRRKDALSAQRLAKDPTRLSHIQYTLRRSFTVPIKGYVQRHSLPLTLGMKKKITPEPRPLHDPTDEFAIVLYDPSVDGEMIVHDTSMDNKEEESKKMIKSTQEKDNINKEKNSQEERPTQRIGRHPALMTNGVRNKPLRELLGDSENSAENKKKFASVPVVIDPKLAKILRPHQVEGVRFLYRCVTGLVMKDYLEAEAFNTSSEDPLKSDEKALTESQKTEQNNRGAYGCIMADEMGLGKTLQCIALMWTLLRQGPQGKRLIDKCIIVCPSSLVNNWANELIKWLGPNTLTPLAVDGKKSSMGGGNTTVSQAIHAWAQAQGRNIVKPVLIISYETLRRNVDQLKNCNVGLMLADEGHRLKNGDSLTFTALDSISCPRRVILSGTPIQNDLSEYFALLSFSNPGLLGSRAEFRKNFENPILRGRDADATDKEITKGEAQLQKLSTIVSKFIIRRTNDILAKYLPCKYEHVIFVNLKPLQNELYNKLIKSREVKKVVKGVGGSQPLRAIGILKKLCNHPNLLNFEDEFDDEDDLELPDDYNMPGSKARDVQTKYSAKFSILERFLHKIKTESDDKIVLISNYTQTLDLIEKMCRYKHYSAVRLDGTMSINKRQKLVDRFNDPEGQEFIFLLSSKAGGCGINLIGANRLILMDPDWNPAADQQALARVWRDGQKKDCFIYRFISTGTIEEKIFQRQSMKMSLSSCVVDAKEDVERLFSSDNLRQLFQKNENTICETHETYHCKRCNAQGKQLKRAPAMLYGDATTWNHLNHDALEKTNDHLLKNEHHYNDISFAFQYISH

S. cerevisiae Rdh54/Tid1 = target: T3, S. cerevisiae Rdh54/Tid1 (Saccharomyces cerevisiae, UniProt P38086); assay: malachite green phosphate ATPase assay; format: biochemical
T3 sequence (P38086 35-958 limits assumed): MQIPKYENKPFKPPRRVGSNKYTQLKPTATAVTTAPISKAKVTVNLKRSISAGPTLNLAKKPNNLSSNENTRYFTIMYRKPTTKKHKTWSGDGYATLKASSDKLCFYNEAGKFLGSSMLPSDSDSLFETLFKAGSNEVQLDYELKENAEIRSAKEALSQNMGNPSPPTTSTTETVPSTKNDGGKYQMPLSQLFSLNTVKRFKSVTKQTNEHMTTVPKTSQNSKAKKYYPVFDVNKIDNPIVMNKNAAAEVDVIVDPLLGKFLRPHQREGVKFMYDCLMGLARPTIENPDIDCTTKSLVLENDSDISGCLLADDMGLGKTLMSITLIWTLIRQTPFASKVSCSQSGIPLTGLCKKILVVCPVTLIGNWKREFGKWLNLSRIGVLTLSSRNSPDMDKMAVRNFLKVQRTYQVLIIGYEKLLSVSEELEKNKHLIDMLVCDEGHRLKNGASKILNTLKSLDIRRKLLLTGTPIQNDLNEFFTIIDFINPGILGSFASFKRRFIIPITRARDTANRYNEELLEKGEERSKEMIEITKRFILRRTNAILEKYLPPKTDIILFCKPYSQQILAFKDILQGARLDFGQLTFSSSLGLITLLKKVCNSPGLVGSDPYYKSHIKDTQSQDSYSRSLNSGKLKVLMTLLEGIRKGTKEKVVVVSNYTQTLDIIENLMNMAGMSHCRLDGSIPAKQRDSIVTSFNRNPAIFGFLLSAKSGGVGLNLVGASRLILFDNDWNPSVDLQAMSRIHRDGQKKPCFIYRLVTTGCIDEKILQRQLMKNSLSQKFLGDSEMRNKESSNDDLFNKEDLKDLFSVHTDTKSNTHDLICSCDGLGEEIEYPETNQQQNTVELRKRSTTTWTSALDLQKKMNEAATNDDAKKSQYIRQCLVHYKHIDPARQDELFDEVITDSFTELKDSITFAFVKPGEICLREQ

E. coli RecA = target: T4, E. coli RecA (Escherichia coli, UniProt P0A7G6); assay: malachite green phosphate ATPase assay; format: biochemical
T4 sequence (P0A7G6 2-353): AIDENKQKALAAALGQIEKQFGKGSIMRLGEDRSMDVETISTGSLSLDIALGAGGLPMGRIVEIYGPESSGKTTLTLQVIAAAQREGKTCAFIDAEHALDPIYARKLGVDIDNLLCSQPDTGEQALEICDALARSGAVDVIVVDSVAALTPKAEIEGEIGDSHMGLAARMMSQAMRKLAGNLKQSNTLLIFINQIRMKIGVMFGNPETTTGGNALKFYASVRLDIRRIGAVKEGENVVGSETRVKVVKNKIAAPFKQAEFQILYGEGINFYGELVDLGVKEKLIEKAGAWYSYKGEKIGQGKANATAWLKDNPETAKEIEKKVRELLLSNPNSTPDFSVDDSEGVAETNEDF

H. sapiens HLTF = target: T5, H. sapiens HLTF (Homo sapiens, UniProt Q14527); assay: malachite green phosphate ATPase assay; format: biochemical
T5 sequence (Q14527 1-1009): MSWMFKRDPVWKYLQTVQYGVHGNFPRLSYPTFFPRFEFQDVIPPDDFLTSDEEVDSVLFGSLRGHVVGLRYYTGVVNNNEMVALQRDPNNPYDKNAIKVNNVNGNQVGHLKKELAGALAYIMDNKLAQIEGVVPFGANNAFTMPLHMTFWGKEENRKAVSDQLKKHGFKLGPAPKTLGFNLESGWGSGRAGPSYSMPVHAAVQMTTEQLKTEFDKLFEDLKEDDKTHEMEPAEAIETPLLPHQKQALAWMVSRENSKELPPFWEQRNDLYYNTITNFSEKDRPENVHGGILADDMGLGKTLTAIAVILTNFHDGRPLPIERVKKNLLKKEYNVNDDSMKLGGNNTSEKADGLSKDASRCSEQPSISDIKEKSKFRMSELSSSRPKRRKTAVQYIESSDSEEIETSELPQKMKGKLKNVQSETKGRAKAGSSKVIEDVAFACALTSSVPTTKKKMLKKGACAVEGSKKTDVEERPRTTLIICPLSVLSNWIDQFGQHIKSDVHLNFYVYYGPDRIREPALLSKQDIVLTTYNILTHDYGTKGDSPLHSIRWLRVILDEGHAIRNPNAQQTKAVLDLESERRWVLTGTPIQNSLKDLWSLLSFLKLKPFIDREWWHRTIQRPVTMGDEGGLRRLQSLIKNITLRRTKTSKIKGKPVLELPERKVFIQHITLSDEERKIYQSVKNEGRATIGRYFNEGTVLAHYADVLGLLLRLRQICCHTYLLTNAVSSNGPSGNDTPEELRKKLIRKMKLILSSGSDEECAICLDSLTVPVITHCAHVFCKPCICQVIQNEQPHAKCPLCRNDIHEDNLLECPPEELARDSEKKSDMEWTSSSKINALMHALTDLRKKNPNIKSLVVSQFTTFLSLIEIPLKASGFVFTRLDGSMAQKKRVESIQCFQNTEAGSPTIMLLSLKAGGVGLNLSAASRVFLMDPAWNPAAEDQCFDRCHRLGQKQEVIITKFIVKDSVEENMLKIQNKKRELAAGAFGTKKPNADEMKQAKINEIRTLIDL

H. sapiens SMARCAL1 = target: T6, H. sapiens SMARCAL1 (Homo sapiens, UniProt Q9NZC9); assay: malachite green phosphate ATPase assay; format: biochemical
T6 sequence (Q9NZC9 2-954): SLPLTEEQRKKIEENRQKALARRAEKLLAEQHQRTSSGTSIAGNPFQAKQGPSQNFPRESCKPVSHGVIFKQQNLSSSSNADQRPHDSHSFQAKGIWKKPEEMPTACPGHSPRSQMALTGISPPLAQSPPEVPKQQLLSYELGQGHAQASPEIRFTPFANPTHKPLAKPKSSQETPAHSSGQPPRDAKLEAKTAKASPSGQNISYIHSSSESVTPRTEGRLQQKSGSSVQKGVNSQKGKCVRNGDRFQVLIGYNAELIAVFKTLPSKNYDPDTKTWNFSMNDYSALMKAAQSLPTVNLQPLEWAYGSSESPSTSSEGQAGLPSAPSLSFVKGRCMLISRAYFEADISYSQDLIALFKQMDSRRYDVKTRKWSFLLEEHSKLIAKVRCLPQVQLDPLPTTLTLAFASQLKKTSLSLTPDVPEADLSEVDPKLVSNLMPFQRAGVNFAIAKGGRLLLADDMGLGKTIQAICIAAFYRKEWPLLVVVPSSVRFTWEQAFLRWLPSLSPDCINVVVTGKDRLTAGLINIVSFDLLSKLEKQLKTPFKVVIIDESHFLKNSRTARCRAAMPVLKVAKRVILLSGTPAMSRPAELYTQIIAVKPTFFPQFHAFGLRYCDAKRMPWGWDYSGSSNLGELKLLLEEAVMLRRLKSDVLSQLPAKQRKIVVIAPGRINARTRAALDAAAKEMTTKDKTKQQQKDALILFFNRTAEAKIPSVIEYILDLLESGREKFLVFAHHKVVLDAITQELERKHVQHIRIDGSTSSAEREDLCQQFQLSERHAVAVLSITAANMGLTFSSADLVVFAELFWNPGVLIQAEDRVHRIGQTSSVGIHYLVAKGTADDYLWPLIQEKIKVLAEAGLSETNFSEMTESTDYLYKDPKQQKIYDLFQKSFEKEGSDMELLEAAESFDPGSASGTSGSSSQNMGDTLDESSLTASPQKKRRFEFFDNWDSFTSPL

human RAD54 [3] = target: T1, human RAD54; assay: biochemical
human RAD54 [4] = target: T1, human RAD54; assay: biochemical; remark: listed apart in the source

| Compound | inhibition at 10 µM (human RAD54 [1]) [%] | IC50 (human RAD54 [2]) [µM] | also measured |
| --- | --- | --- | --- |
| CS(=O)(=O)C1=NSC2=NC(=O)C(=Cc3ccc(SCc4ccc(Cl)cc4)o3)C(=N)N21 [54i^P-3] | 27 |  |  |
| CC1(C)c2cc(Cl)ccc2N(CCc2nnn[nH]2)c2ccc(Cl)cc21 [tricyc-2] |  | 3.07 ± 0.7 |  |
| NC=O [54i^P-4] | 36 |  |  |
| CN(C)CCCNCC(O)Cn1c2ccc(Cl)cc2c2cc(Cl)ccc21 (stereo not drawn) [54i-1] | 68 | 5 ± 1.05 | IC50 (H. sapiens VCP/p97): > 500 µM; IC50 (S. cerevisiae Rad54): 3.8 ± 1.8 µM; IC50 (S. cerevisiae Rdh54/Tid1): 43.2 ± 2.9 µM; IC50 (E. coli RecA): 0.79 ± 0.05 µM; IC50 (H. sapiens HLTF): 377 ± 195 µM; IC50 (H. sapiens SMARCAL1): 5.7 ± 0.6 µM |
| Cc1ccc(C)n1CCN1CCNCC1 [54h^o-1] |  |  | IC50 (human RAD54 [4]): > 60 µM |
| Cc1nc2c(=O)n(C)c(=O)nc-2n(C)n1 [54i^P-1a] | 44 |  |  |
| CC1(C)c2cc(Br)ccc2N(CCc2nnn[nH]2)c2ccc(Br)cc21 [tricyc-3] |  | 7.65 ± 1.06 |  |

Now from value to molecule, other results behind:

| inhibition at 10 µM (human RAD54 [1]) [%] | IC50 (human RAD54 [2]) [µM] | Compound | also measured |
| --- | --- | --- | --- |
| 18 | 16 ± 3 | CC1(C)Cc2c(ccc3ccccc23)C(CCN2CCCCC2)=N1 [54i-2] |  |
| 50 |  | Cc1ccc(C)n1-c1ccc(C(=O)O)c(O)c1 [54i^P-2a] |  |
| 70 |  | Cc1ccc(C)n1-c1ccc(SCC(=O)O)cc1 [54i^P-2b] |  |
|  | > 130 | CC1(C)c2ccccc2N(CCc2nnn[nH]2)c2ccccc21 [tricyc-1] | IC50 (human RAD54 [3]): 129 ± 19.7 µM |
| 61 |  | CCCc1nc2c(=O)n(C)c(=O)nc-2n(C)n1 [54i^P-1b] |  |
| 79 |  | CCn1nc(-c2ccc(C(F)F)cc2)nc2c(=O)n(C)c(=O)nc1-2 [54i^P-1e] |  |
| 49 |  | CCn1nc(-c2ccc(C)cc2)nc2c(=O)n(C)c(=O)nc1-2 [54i^P-1d] |  |
| 70 |  | CCn1nc(-c2ccccc2C)nc2c(=O)n(C)c(=O)nc1-2 [54i^P-1c] |  |
